Experimental data reported in ChEMBL document CHEMBL1131942, “(3-substituted benzyl)thiazolidine-2,4-diones as structurally new antihyperglycemic agents” (Bioorg Med Chem Lett, 1999).

Assays:
Type in all cases: functional
[1] = system: Mus musculus; test: Antihyperglycemic activity was determined in obese (ob/ob) mice by po administration at a dose of 10 mg/kg
[2] = system: Mus musculus; test: Antihyperglycemic activity in obese mice(ob/ob) at 1 mg/kg peroral administration; settings: route oral
[3] = system: Mus musculus; test: Antihyperglycemic activity in obese mice(ob/ob) at 3 mg/kg peroral administration; settings: route oral
[4] = system: Mus musculus; test: In vivo decrease in glucose in obese mice(ob/ob) by 10 mg/kg/day peroral administration for 2 weeks; settings: route oral
[5] = system: Mus musculus; test: In vivo decrease in insulin in obese mice(ob/ob) at 10 mg/kg/day peroral administration for 2 weeks; settings: route oral
[6] = system: Mus musculus; test: In vivo decrease in glucose in obese mice(ob/ob) at 10 mg/kg/day peroral administration for 2 weeks; settings: route oral
[7] = system: Mus musculus; test: In vivo decrease in insulin in obese mice(ob/ob) at 3 mg/kg/day peroral administration for 2 weeks; settings: route oral
[8] = system: Mus musculus; test: In vivo decrease in glucose in obese mice(ob/ob) at 3 mg/kg/day peroral administration for 2 weeks; settings: route oral
[9] = system: Mus musculus; test: In vivo decrease in triglyceride in obese mice(ob/ob) by 3 mg/kg/day peroral administration for 2 weeks; settings: route oral
[10] = system: Mus musculus; test: In vivo decrease in glucose in obese mice(ob/ob) by 0.3 mg/kg/day peroral administration for 2 weeks; settings: route oral
[11] = system: Mus musculus; test: In vivo decrease in glucose in obese mice(ob/ob) at 1 mg/kg/day peroral administration for 2 weeks; settings: route oral
[12] = system: Mus musculus; test: In vivo decrease in insulin in obese mice(ob/ob) at 1 mg/kg/day peroral administration for 2 weeks; settings: route oral
[13] = system: Mus musculus; test: In vivo decrease in glucose in obese mice(ob/ob) by 1 mg/kg/day peroral administration for 2 weeks; settings: route oral
[14] = system: Mus musculus; test: In vivo decrease in insulin in obese mice(ob/ob) at 0.3 mg/kg/day peroral administration for 2 weeks; settings: route oral
[15] = system: Mus musculus; test: In vivo decrease in triglyceride in obese mice(ob/ob) by 0.3 mg/kg/day peroral administration for 2 weeks; settings: route oral

## COc1ccc(CC2SC(=O)NC2=O)cc1C(=O)NCCc1ccc(C(F)(F)F)cc1 (configuration not stated)
[1]
  Decrease in blood glucose: 3%

## COc1ccc(CC2SC(=O)NC2=O)cc1C(=O)NCc1ccccc1 (configuration not stated)
[2]
  Decrease in blood glucose: 19%
[3]
  Decrease in blood glucose: 31%
[1]
  Decrease in blood glucose: 37%

## O=C1NC(=O)C(Cc2ccc(O)c(C(=O)NCc3ccc(C(F)(F)F)cc3)c2)S1 (configuration not stated)
[2]
  Decrease in blood glucose: 7%
[3]
  Decrease in blood glucose: 12%
[1]
  Decrease in blood glucose: 34%

## COc1c(CC2SC(=O)NC2=O)cccc1C(=O)NCc1ccc(C(F)(F)F)cc1 (configuration not stated)
[1]
  Decrease in blood glucose: 0%

## CC(C)Oc1ccc(CC2SC(=O)NC2=O)cc1C(=O)NCc1ccc(C(F)(F)F)cc1 (configuration not stated)
[1]
  Decrease in blood glucose: 45%

## Cc1c(C)c2c(c(C)c1O)CCC(C)(COc1ccc(CC3SC(=O)NC3=O)cc1)O2 (configuration not stated) [TROGLITAZONE]
[1]
  Decrease in blood glucose: 9%

## COc1ccc(C(=O)NCc2ccc(C(F)(F)F)cc2)cc1CC1SC(=O)NC1=O (configuration not stated)
[1]
  Decrease in blood glucose: 3%

## COc1ccc(CC2SC(=O)NC2=O)cc1C(=O)NCc1ccc(C(C)(C)C)cc1 (configuration not stated)
[1]
  Decrease in blood glucose: 5%

## CCOc1ccc(CC2SC(=O)NC2=O)cc1C(=O)NCc1ccc(C(F)(F)F)cc1 (configuration not stated)
[1]
  Decrease in blood glucose: 34%

## COc1ccc(CC2SC(=O)NC2=O)cc1C(=O)NCc1cccc(C(F)(F)F)c1 (configuration not stated)
[1]
  Decrease in blood glucose: 41%

## COc1ccc(CNC(=O)c2cc(CC3SC(=O)NC3=O)ccc2OC)cc1 (configuration not stated)
[1]
  Decrease in blood glucose: 21%

## COc1ccc(CC2SC(=O)NC2=O)cc1C(=O)NCc1ccc(F)cc1 (configuration not stated)
[1]
  Decrease in blood glucose: 28%

## COc1ccc(CCC2SC(=O)NC2=O)cc1C(=O)NCc1ccc(C(F)(F)F)cc1 (configuration not stated)
[2]
  Decrease in blood glucose: 15%
[3]
  Decrease in blood glucose: 20%
[1]
  Decrease in blood glucose: 43%

## COc1ccc(CC2SC(=O)NC2=O)cc1C(=O)NCc1ccc(OC(F)(F)F)cc1 (configuration not stated)
[1]
  Decrease in blood glucose: 34%

## COc1ccc(CNC(=O)c2cc(CC3SC(=O)NC3=O)ccc2OC)cc1OC (configuration not stated)
[1]
  Decrease in blood glucose: 30%

## COc1ccc(CC2SC(=O)NC2=O)cc1C(=O)NCc1ccc(C)cc1 (configuration not stated)
[1]
  Decrease in blood glucose: 30%

## CCc1ccc(CCOc2ccc(CC3SC(=O)NC3=O)cc2)nc1 (configuration not stated) [PIOGLITAZONE]
[4]
  Rate of decrease: 99%
[5]
  Rate of decrease: 41%
[6]
  Rate of decrease: 75%
[7]
  Rate of decrease: 43%
[8]
  Rate of decrease: 64%
[1]
  Decrease in blood glucose: 14%
[9]
  Rate of decrease: 85%

## COc1ccc(CC2SC(=O)NC2=O)cc1C(=O)NCc1ccc(C(F)(F)F)cc1 (configuration not stated)
[4]
  Rate of decrease: 130%
[2]
  Decrease in blood glucose: 35%
[3]
  Decrease in blood glucose: 53%
[5]
  Rate of decrease: 87%
[10]
  Rate of decrease: 77%
[11]
  Rate of decrease: 78%
[6]
  Rate of decrease: 100%
[12]
  Rate of decrease: 59%
[13]
  Rate of decrease: 80%
[14]
  Rate of decrease: 55%
[15]
  Rate of decrease: 67%
[7]
  Rate of decrease: 83%
[8]
  Rate of decrease: 95%
[1]
  Decrease in blood glucose: 58%
[9]
  Rate of decrease: 122%

## COc1ccc(CC2SC(=O)NC2=O)cc1C(=O)NCc1cc(C(F)(F)F)cc(C(F)(F)F)c1 (configuration not stated)
[1]
  Decrease in blood glucose: 30%

## COc1ccc(CC2SC(=O)NC2=O)cc1C(=O)Nc1ccc(C(C)(C)C)cc1 (configuration not stated)
[1]
  Decrease in blood glucose: 17%

## COc1ccc(CC2SC(=O)NC2=O)cc1C(=O)NCc1ccc(N(C)C)cc1 (configuration not stated)
[1]
  Decrease in blood glucose: 12%

## Cc1ccc(CC2SC(=O)NC2=O)cc1C(=O)NCc1ccc(C(F)(F)F)cc1 (configuration not stated)
[1]
  Decrease in blood glucose: 16%

## COc1ccc(CCCC2SC(=O)NC2=O)cc1C(=O)NCc1ccc(C(F)(F)F)cc1 (configuration not stated)
[2]
  Decrease in blood glucose: 10%
[3]
  Decrease in blood glucose: 29%
[1]
  Decrease in blood glucose: 39%

## CCN(Cc1ccc(C(F)(F)F)cc1)C(=O)c1cc(CC2SC(=O)NC2=O)ccc1OC (configuration not stated)
[1]
  Decrease in blood glucose: 31%

## O=C1NC(=O)C(Cc2ccc(F)c(C(=O)NCc3ccc(C(F)(F)F)cc3)c2)S1 (configuration not stated)
[1]
  Decrease in blood glucose: 50%

## COc1ccc(CC2SC(=O)NC2=O)cc1C(=O)NCc1ccccc1C(F)(F)F (configuration not stated)
[1]
  Decrease in blood glucose: 4%

## COc1ccc(C2SC(=O)NC2=O)cc1C(=O)NCc1ccc(C(F)(F)F)cc1 (configuration not stated)
[2]
  Decrease in blood glucose: 27%
[3]
  Decrease in blood glucose: 36%
[1]
  Decrease in blood glucose: 48%
